From ChEMBL document CHEMBL3217725, “Peptidomimetic nitriles as selective inhibitors for the malarial cysteine protease falcipain-2” (Medchemcomm, 2011) come the findings set out here.

By Ki is commonly meant a dissociation constant, usually derived from enzyme kinetics or from competition with a known ligand. In general, inhibition refers to the relative decrease from the control value, in per cent.

Experiment [1] concerns the target T1, Procathepsin L (Homo sapiens, UniProt P07711). The experiment can be described thus: Inhibition of human cathepsin L.
Target sequence in this assay (P07711 whole entry): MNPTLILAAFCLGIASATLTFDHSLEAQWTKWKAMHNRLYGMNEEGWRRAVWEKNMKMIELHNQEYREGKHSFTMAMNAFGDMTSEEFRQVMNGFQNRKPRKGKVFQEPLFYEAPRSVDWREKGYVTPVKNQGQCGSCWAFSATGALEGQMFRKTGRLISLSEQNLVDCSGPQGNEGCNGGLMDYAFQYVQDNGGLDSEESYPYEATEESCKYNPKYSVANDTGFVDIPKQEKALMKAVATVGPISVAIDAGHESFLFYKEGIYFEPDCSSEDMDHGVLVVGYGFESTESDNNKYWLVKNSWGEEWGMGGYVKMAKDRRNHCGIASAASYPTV
For experiment [2], the target named is T2, Cathepsin B (Homo sapiens, UniProt P07858). Put plainly: Inhibition of human cathepsin B at 20 uM relative to control.
Experiment [3] can be described thus: Inhibition of Plasmodium falciparum recombinant falcipain 2 using Cbz-Leu-Arg-AMC as substrate after 10 mins by fluorescence spectrophotometric analysis.
The species entered for a further experiment is Homo sapiens. Put plainly: Inhibition of human alpha-chymotrypsin using Suc-Leu-Tyr-AMC as substrate assessed as residual activity after 10 mins by Dixon plot analysis.
In experiment [4] the target is T2, Cathepsin B. Put plainly: Inhibition of human cathepsin B.
Experiment [5] addresses T1, Procathepsin L. Put plainly: Inhibition of human cathepsin L at 20 uM relative to control.
Target sequence in this assay (P07711 114-333 limits assumed): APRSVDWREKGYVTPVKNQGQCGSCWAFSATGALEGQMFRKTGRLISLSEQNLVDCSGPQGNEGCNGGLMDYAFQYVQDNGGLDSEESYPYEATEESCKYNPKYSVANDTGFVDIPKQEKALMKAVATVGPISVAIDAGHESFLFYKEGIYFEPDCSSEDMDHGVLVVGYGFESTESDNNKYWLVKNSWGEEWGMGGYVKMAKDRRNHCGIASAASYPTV
The next experiment deals with Plasmodium falciparum. The experiment can be described thus: Inhibition of Plasmodium falciparum recombinant falcipain 2 using Cbz-Leu-Arg-AMC as substrate at 20 uM after 10 mins by fluorescence spectrophotometric analysis relative to control.

SMILES strings stand for the structures. The source made the active and inactive calls. The rule behind the calls is not given here. Where a SMILES comes first, the peptide text is derived from it. [ ]: non-standard residue; d: D form. The star is where a group is joined. Ac6c = NC1(C(=O)O)CCCCC1; Cbz = O=C(OCc1ccccc1)*

On to `O=CCNC(=O)C1(NC(=O)OCc2ccccc2)CCCCC1` (Cbz-[Ac6c]-Gly-aldehyde), for which the Ki on Procathepsin L [1] stood at 0.82 µM; in experiment [3] it was 0.065 µM; on Cathepsin B [4], 1.35 µM. Besides, the inhibition on Cathepsin B [2], against Procathepsin L [5] and in the experiment on Plasmodium falciparum was below 35% throughout. Moreover, the result in the experiment listed under Homo sapiens was inactive.
Take `N#C[C@@H]1CCCN1C(=O)C1(NC(=O)OCc2ccccc2)CCCCC1`: the inhibition at Cathepsin B [2], against Procathepsin L [5] and in the experiment on Plasmodium falciparum was below 35% in each case. The result in the experiment filed under Homo sapiens was inactive.
As to `N#CCNC(=O)C1(NC(=O)CCc2cccs2)CCCCC1`, the inhibition against Cathepsin B [2], at Procathepsin L [5] and with Plasmodium falciparum was below 35% in each case. In addition, in experiment [3], the inhibitory constant (Ki) amounted to 8.8 µM. For the same molecule, the result in the experiment filed under Homo sapiens was inactive.
With `N#CCNC(=O)C1(NC(=O)OCc2ccccc2)CCCCC1`, the Ki at Procathepsin L [1] stood at 26.5 µM; in experiment [3], 1.2 µM. Further, the inhibition against Cathepsin B [2], against Procathepsin L [5] and in the experiment on Plasmodium falciparum was below 35% each time. For the same molecule, in the experiment listed under Homo sapiens, the outcome was inactive.
On to `N#CCNC(=O)C1(NC(=O)C2CCCC2)CCCCC1`, for which the inhibition at Cathepsin B [2], against Procathepsin L [5] and in the experiment with Plasmodium falciparum was below 35% in each case. Moreover, the inhibition constant Ki in experiment [3] worked out at 7.6 µM. Further, the result in the experiment listed under Homo sapiens was inactive.
With `COc1ccc(CCC(=O)NC2(C(=O)NCC#N)CCCCC2)cc1OC`, the inhibition on Cathepsin B [2], against Procathepsin L [5] and with Plasmodium falciparum was below 35% each time. For the same molecule, in experiment [3], the inhibition constant Ki came to 7.3 µM. Moreover, the result in the experiment filed under Homo sapiens was inactive.
As for `N#CCNC(=O)C1(NC(=O)CCc2cccnc2)CCCCC1`, the inhibition against Cathepsin B [2], against Procathepsin L [5] and in the experiment with Plasmodium falciparum was below 35% each time. Further, the inhibition constant (Ki) in experiment [3] stood at 9.4 µM. Besides, in the experiment listed under Homo sapiens, the result was inactive.
For the molecule `N#CCNC(=O)C1(NC(=O)[C@H]2C[C@@H]2c2ccccc2)CCCCC1` (racemic), the values for the Ki (on Procathepsin L [1]; in experiment [3]; on Cathepsin B [4]) were 13.1 µM, 2.1 µM and 5 µM, respectively. The inhibition on Cathepsin B [2], against Procathepsin L [5] and in the experiment with Plasmodium falciparum was below 35% throughout. In addition, the result in the experiment listed under Homo sapiens was inactive.
Regarding `N#CCNC(=O)C1(NC(=O)CCC2CCCC2)CCCCC1`, the results for the Ki (at Procathepsin L [1]; in experiment [3]; at Cathepsin B [4]) were 29.8 µM, 8.2 µM and 25 µM, respectively. The inhibition at Cathepsin B [2], at Procathepsin L [5] and in the experiment with Plasmodium falciparum was below 35% in each case. For the same molecule, the outcome in the experiment listed under Homo sapiens was inactive.
For `COc1ccc(CCC(=O)NC2(C(=O)NCC#N)CCCCC2)cc1`, the inhibition against Cathepsin B [2], at Procathepsin L [5] and in the experiment with Plasmodium falciparum was below 35% each time. Besides, in experiment [3], the Ki amounted to 8.9 µM. Moreover, in the experiment listed under Homo sapiens, the result was inactive.
On to `CC(C)(NC(=O)OCc1ccccc1)C(=O)NCC#N`, for which the inhibition against Cathepsin B [2], against Procathepsin L [5] and in the experiment on Plasmodium falciparum was below 35% in each case. The result in the experiment filed under Homo sapiens was inactive.
`N#CCNC(=O)C1(NC(=O)CCc2ccco2)CCCCC1`: the inhibition against Cathepsin B [2], on Procathepsin L [5] and in the experiment with Plasmodium falciparum was below 35% throughout. In addition, the Ki in experiment [3] is 17.2 µM. Further, the result in the experiment filed under Homo sapiens was inactive.
`COc1ccccc1CCC(=O)NC1(C(=O)NCC#N)CCCCC1`: the values for the inhibition constant Ki (at Procathepsin L [1]; in experiment [3]) were 25.1 µM and 5.2 µM, respectively. The inhibition against Cathepsin B [2], against Procathepsin L [5] and in the experiment on Plasmodium falciparum was below 35% throughout. The result in the experiment filed under Homo sapiens was inactive.
